Laboratory results reported in article PMC12718261, “New Fluorescent Synthetic Retinoids as Potential RAR Agonists with Anticancer, Molecular Docking and ADME Assessments” (Journal of Fluorescence, 2025).
Values joined by “and” are separate entries in the source; they are usually repeats but may differ in a detail not shown here. Equal entries are not always repeated.

Key:
Type in all cases: cell-based
[1] = test system: WI-38 normal human fibroblast cells; assay: MTT cytotoxicity assay on normal fibroblasts; details: WI-38 normal fibroblast cells, 24 h, mean ± SEM
Protocol: (§1) The antiproliferation and cytotoxicity were assessed using 3-(4,5-dimethylthiazol-2-yl)−2,5-diphenyltetrazolium bromide (MTT, Serva) colorimetric assay. All tested cancer cell lines were seeded at a density of 20,000 cells per well in 96-well plates and allowed to adhere overnight. The attached cells were treated with five serial dilutions (100, 50, 5, 0.5, and 0.1 μM) in triplicate. These concentrations were prepared by diluting the stock solutions with serum-free culture media. The negative control cells were those treated with 0.1% DMSO solvent alone. The treated cells were handled in reduced light and maintained under standard culture growth conditions for 24 h. After the incubation period, MTT powder was prepared as a stock solution (5 mg/mL), and 20 μL of the MTT working reagent (final concentration 0.5 mg/mL) was added to each well. This was followed by incubation with MTT reagent for 4 h in a humidified atmosphere (37 °C, 5% CO2) with subsequent addition of 150 μL of DMSO solubilizing solvent and incubation for 20 min. The absorbance of solubilized violet formazan crystals was measured at 570 nm with a Biotek 800 TS microplate reader. IC50 was calculated as the concentration of retinoid that produced 50% cell growth inhibition. For cytotoxicity assessment, WI-38 normal human fibroblast cells were used for the calculation of SI, which is the ratio of IC50 retinoid (WI-38)/IC50 retinoid (cancer cell line).

Caco-2 = assay: MTT anti-proliferative assay; details: Homo sapiens; Caco-2, MTT, 24 h, mean ± SEM
Protocol: as §1

HCT-116 = assay: MTT anti-proliferative assay; details: Homo sapiens; HCT-116, MTT, 24 h, mean ± SEM
Protocol: as §1

HepG-2 = assay: MTT anti-proliferative assay; details: Homo sapiens, HepG2; HepG-2, MTT, 24 h, mean ± SEM
Protocol: as §1

MCF-7 = assay: MTT anti-proliferative assay; details: Homo sapiens, MCF7; MCF-7, MTT, 24 h, mean ± SEM
Protocol: as §1

MDA-MB231 = assay: MTT anti-proliferative assay; details: Homo sapiens, MDA-MB-231, 24 h, mean ± SEM
Protocol: as §1

PC-3 = assay: MTT anti-proliferative assay; details: Homo sapiens; PC-3, MTT, 24 h, mean ± SEM
Protocol: as §1

[2] = test system: different cancer cell lines; assay: MTT anti-proliferative assay, whole panel statements; details: 24 h, read-out: IC50 across different cancer cell lines
Protocol: as §1, with “For cytotoxicity assessment, WI-38 normal human fibroblast cells were used for the calculation of SI, which is the ratio of IC50 retinoid (WI-38)/IC50 retinoid (cancer cell line).” left out

Caco-2 cancer cells [3] = assay: Apoptosis assay Annexin V/PI flow cytometry; details: Caco-2, IC50 dose, 24 h, AV/PI
Protocol: The standard protocol used in HSBR was performed. […] Cells were rinsed with 1 mL of binding buffer; the cells were again suspended in phosphate-buffered saline (PBS) (Lonza). 100 µL of cell suspension was incubated with 1 µL of FITC-labeled Annexin-V and 5 µL of PI for 15 min at 4 °C in the dark. The suspension was then mixed with 400 µL of ice-cold binding buffer, and each sample's apoptotic cells were analyzed using a Cytoflex flow cytometer (Beckman Coulter, USA), and CytExpert software (version 2.4.0.28) was employed for data analysis.

Caco-2 cancer cells [4] = assay: Cell cycle assay PI staining flow cytometry; details: Caco-2, IC50 dose, 24 h
Protocol: The standard protocol used in HSBR was performed. […] Cells were concentrated at 1500 xg and suspended in 50 μg/ml propidium iodide (PI) staining solution and 20 µg/ml RNaseA to identify cells with a sub-G1 DNA content. Cytoflex flow cytometer (Beckman Coulter, USA) was used, and CytExpert software (version 2.4.0.28) was employed for data analysis. The gating strategy used to eliminate doublets depends on plotting the population against a 2D contour plot in four quadrants, referred to as Q1(LL), Q2 (LR), Q3 (UL), and Q4 (UR), that illustrates the spread of the Annexin-FITC-H core cell population against PI PE-H.

[5] = test system: CRABPI gene in Caco-2 cells; assay: Gene expression RT-qPCR; details: Caco-2, IC50 dose, 24 h, relative to 0.1% DMSO, normalized to GAPDH
Protocol: (§2) The gene expression analysis was performed using real-time quantitative PCR (RT-qPCR), as previously documented. After incubation, cells were harvested, and total RNA was extracted using the Favor-PrepTM Blood/Cultured Cell Total RNA Purification Mini kit (Favorgen Biotech Corp., Ping-Tung, Taiwan). The purified RNA was then reverse transcribed into the first-strand cDNA using the Revert Aid First-Strand cDNA Synthesis Kit (Thermo Scientific, Waltham, MA, USA). All qPCR reactions were carried out using the […] SYBR® Green qPCR Kit (Willowfort, Nottingham, UK). Differential gene expression was performed using the 2ˆ^−ΔΔCT method utilizing GAPDH as a reference gene.

[6] = test system: Caspase-3 gene in Caco-2 cells; assay: Gene expression RT-qPCR; details: Caco-2, IC50 dose, 24 h, relative to 0.1% DMSO, normalized to GAPDH
Protocol: as §2

[7] = test system: Cyt-C gene in Caco-2 cells; assay: Gene expression RT-qPCR; details: Caco-2, IC50 dose, 24 h, relative to 0.1% DMSO, normalized to GAPDH
Protocol: as §2

[8] = test system: RAR-γ gene in Caco-2 cells; assay: Gene expression RT-qPCR; details: Caco-2, IC50 dose, 24 h, relative to 0.1% DMSO, normalized to GAPDH
Protocol: as §2

[9] = test system: total ATPase in Caco-2 cells; assay: Total ATPase activity, malachite green colorimetric; details: Caco-2, IC50 dose, 24 h; 0.1% DMSO control normalized to 100%
Protocol: (§3) The total activity of ATPase and calcium-independent ATPase activity was quantified colorimetrically as described by our previous protocol. […] The inorganic phosphate (Pi) liberated after the hydrolysis of ATP by ATPase enzymes was complexed into a colored product in one step after the addition of a mixed reagent containing malachite green, ammonium molybdate, and polyvinyl alcohol (2:1:1). The intensity of absorbance at 630 nm was measured using the BioTek 800 TS absorbance plate reader (USA) and was directly proportional to the quantity of liberated Pi. In order to eliminate any color due to the non-enzymatic hydrolysis of ATP, control reactions were made using only ATP in the reaction buffer, and the absorbance intensity was then subtracted from the readings of the samples and standards.

[10] = test system: calcium-independent ATPases in Caco-2 cells; assay: Calcium-independent ATPase activity, malachite green colorimetric; details: Caco-2, IC50 dose, 24 h; 0.1% DMSO control normalized to 100%
Protocol: as §3

[11] = test system: RAR-α, RAR-β, RAR-γ proteins in Caco-2 cells; assay: Western blotting of RAR proteins; details: Caco-2, IC50 dose, 24 h, normalized to β-actin
Protocol: Using the previously outlined protocol, the western blot technique was used to determine the expression of RAR-α (Cat. No. E6Z6 K, cell signaling, USA), RAR-β (Cat. No. PP-H4338-00, R&D systems, USA) and RAR- γ (Cat. No. D3 A4, cell signaling, USA) in Caco-2 cells. […] Following incubation, floating adhered cells were separated and lysed. The Caco-2 cell lysate was immediately collected, subjected to sonication, and centrifuged for 15 min at 12,000 × g. The total soluble protein content was measured colorimetrically using the PierceTM 660 nm Assay (Thermo Scientific, Waltham, MA, USA) after the resultant supernatant was separated. The Gel documentation system (Geldoc-it, UVP, England) was applied for data analysis using Totallab analysis software (Ver.1.0.1) (ww.totallab.com).

IL-10 in Caco-2 cells = assay: Intracellular IL-10 ELISA; details: Caco-2, IC50 dose, 24 h, vs DMSO control
Protocol: For IL-10. Moreover, IL-6 measurements and cell pellets were lysed using RIPA buffer, and the total lysate was collected. The total protein was estimated to use commercially available ELISA kits as per the manufacturer’s instructions. ELISA plates were coated and used for analysis according to the previously used protocol using capture antibody (IL-6, Cat. No.: RAB0307 [57] and IL-10, Cat. No.: RAB1060 [58]), followed by blocking using 5% BSA in PBS-Tween buffer for 1 h. After incubating with samples for 2 h, a secondary […] antibody was added and kept for incubation for 2 h. Streptavidin-HRP reagent was then added to the plates, followed by the addition of TMB solution. Finally, the reaction was stopped using 2 N H2SO4, and the color was measured using the BioTek 800 TS absorbance plate reader (USA) at 450 nm wavelengths, and the protein was quantified.

[12] = test system: CRABPII gene in Caco-2 cells; assay: Gene expression RT-qPCR; details: Caco-2, IC50 dose, 24 h, relative to 0.1% DMSO, normalized to GAPDH
Protocol: as §2

[13] = test system: RAR-β gene in Caco-2 cells; assay: Gene expression RT-qPCR; details: Caco-2, IC50 dose, 24 h, relative to 0.1% DMSO, normalized to GAPDH
Protocol: The gene expression analysis was performed using real-time quantitative PCR (RT-qPCR), as previously documented [38]. After incubation, cells were harvested, and total RNA was extracted using the Favor-PrepTM Blood/Cultured Cell Total RNA Purification Mini kit (Favorgen Biotech Corp., Ping-Tung, Taiwan). The purified RNA was then reverse transcribed into the first-strand cDNA using the Revert Aid First-Strand cDNA Synthesis Kit (Thermo Scientific, Waltham, MA, USA). […] SYBR® Green qPCR Kit (Willowfort, Nottingham, UK). Differential gene expression was performed using the 2ˆ^−ΔΔCT method utilizing GAPDH as a reference gene [39].

Row | IC50 (Caco-2) [µM] | IC50 (HCT-116) [µM] | IC50 (MCF-7) [µM] | IC50 (MDA-MB231) [µM] | IC50 (PC-3) [µM] | Compound | IC50 [1] [µM] | IC50 (HepG-2) [µM] | % Early apoptotic cells (LR) (Caco-2 cancer cells [3]) | % Late apoptotic cells (UL) (Caco-2 cancer cells [3]) [%] | % Necrotic cells (UR) (Caco-2 cancer cells [3]) | % Viable cells (LL) (Caco-2 cancer cells [3]) [%] | % G0-G1 (Caco-2 cancer cells [4]) [%] | % G2M (Caco-2 cancer cells [4]) [%] | % S (Caco-2 cancer cells [4]) [%] | % SubG0-G1 (Caco-2 cancer cells [4]) | CRABPI gene expression fold change [5] [fold] | caspase-3 gene expression fold change [6] | Cyt-C gene expression fold change [7] | total ATPase activity [9] [%] | ca+2-independent ATPase activity [10] [%] | other results
1 | 14.4 ± 0.36 | 52.9 ± 4.3 | 12.2 ± 3.2 | 2.09 ± 0.1 | 4.6 ± 1.7 | COC(=O)c1ccc2cc(-c3ccc4c(c3)CCCO4)ccc2c1 [Compound 3b, Methyl 6-(chroman-6-yl)−2-naphthoate] | 29.2 ± 2.1 | 12 ± 2.6 | 60.06 ± 5.4 % | 0.49 | 37.78% and 37.78 ± 2.7 % | 1.68 ± 0.1 | 19.65 ± 2.7 | 1.74 ± 0.1 | 3.31 ± 1.1 | 75.62% and 75.62 ± 7.4 % | 9.9 ± 0.4 | did not show any significant increase | did not show any overexpression | 41 | 36.2 | IC50 [2]: ≤ 50 µM; RAR-γ gene expression fold change [8]: 2.4 ± 0.1 fold
2 | 47.3 ± 6.2 | 133 ± 6.8 | 64.8 ± 5.4 | 2.42 ± 1.3 | 2.78 ± 0.3 | O=C(O)c1ccc2cc(-c3ccc4c(c3)CCCN4)ccc2c1 [Compound 4a, 6-(1,2,3,4-tetrahydroquinolin-6-yl)−2-naphthoic acid] | 43.7 ± 4.2 | 53 ± 4.9 | 23.44% and 23.44 ± 2.3 % | 0.37 | 75.13% and 75.13 ± 6.8 % | 1.06 ± 0.1 | 18.77 ± 4.8 | 2.26 ± 0.4 | 3.53 ± 1.3 | 75.83% and 75.83 ± 6.4 % |  | did not show any significant increase | did not show any overexpression | 23.7 | 13.9 | RAR protein expression (western blot) [11]: overexpression of all RARs; intracellular IL-10 level change (IL-10 in Caco-2 cells): did not show any significant reduction
3 | 9.58 ± 1.1 | 10.2 ± 3.8 | 13.8 ± 2.4 | 2.33 ± 0.6 | 18.9 ± 4 | COC(=O)c1ccc2cc(-c3ccc4c(c3)CCCN4)ccc2c1 [Compound 3a, Methyl 6-(1,2,3,4-tetrahydroquinolin-6-yl)−2-naphthoate] | 39.2 ± 4.7 | 6.37 ± 1 | 47.37 ± 3.9 % | 0.30 | 51.38 ± 3.6 % | 0.95 | 23.90 ± 8.4 | 2.41 ± 0.3 | 4.13 ± 1.2 | 70.02% and 70.02 ± 4.7 % | 2.4 ± 0.1 | 8.5 ± 0.4 fold | did not show any overexpression | 43.9 | 40.0 | RAR-γ gene expression fold change [8]: 4.5 ± 0.2 fold; intracellular IL-10 level change (IL-10 in Caco-2 cells): additional significant reduction

Row | Compound | IC50 (Caco-2) [µM] | IC50 (HCT-116) [µM] | IC50 (MCF-7) [µM] | IC50 (MDA-MB231) [µM] | IC50 (PC-3) [µM] | IC50 [1] [µM] | IC50 (HepG-2) [µM] | % Early apoptotic cells (LR) (Caco-2 cancer cells [3]) | % Late apoptotic cells (UL) (Caco-2 cancer cells [3]) [%] | % Necrotic cells (UR) (Caco-2 cancer cells [3]) | % Viable cells (LL) (Caco-2 cancer cells [3]) [%] | % G0-G1 (Caco-2 cancer cells [4]) [%] | % G2M (Caco-2 cancer cells [4]) [%] | % S (Caco-2 cancer cells [4]) [%] | % SubG0-G1 (Caco-2 cancer cells [4]) | CRABPI gene expression fold change [5] [fold] | caspase-3 gene expression fold change [6] | Cyt-C gene expression fold change [7] | total ATPase activity [9] [%] | ca+2-independent ATPase activity [10] [%] | other results
4 | CC1=C(/C=C/C(C)=C/C=C/C(C)=C/C(=O)O)C(C)(C)CCC1 [ATRA, all-trans-retinoic acid, reference compound] | 11.4 ± 0.3 | 38.8 ± 0.9 | 4.93 ± 0.4 | 10.4 ± 0.2 | 2.21 ± 0.1 | 46.9 ± 2.8 | 16 ± 1.3 | 1.20 ± 0.1% | 0.03 | 98.74% and 98.74 ± 8.7 % | 0.02 | 17.37 ± 6.1 | 3.05 ± 0.7 | 5.39 ± 1.4 | 74.63 ± 5.8 % | 1.2 | 1.6 ± 0.1 fold | 7.7 ± 0.3 fold | 42.2 | 39.4 | CRABPII gene expression fold change [12]: no effect; RAR-γ gene expression fold change [8]: 4.1 ± 0.2 fold; RAR-β gene expression fold change [13]: 35.3 ± 1.6 fold
